Test results as given in PMC4853478 (Nature Communications, 2016).
Values belong to the molecule of their own block, whether it stands above or below them.

Legend:
PRC2 = target: PRC2; design: method as in PMID 24304166; details: activated versus basal PRC2; cited from earlier work
HsPRC2_4 [1] = target: T1, HsPRC2_4 (Homo sapiens, UniProt Q15910); experiment: Inhibition of basal and activated states of HsPRC2_4; format: biochemical; details: for Ki: SAM above Km, mean of two independent experiments
T1 construct: intact HsPRC2_4 (full-length EZH2 (EZH2_FL) and SUZ12 co-migrate on SDS-PAGE); made in house; host or cells: Sf9 insect cells (baculovirus co-infection)
T1 sequence (Q15910 whole entry): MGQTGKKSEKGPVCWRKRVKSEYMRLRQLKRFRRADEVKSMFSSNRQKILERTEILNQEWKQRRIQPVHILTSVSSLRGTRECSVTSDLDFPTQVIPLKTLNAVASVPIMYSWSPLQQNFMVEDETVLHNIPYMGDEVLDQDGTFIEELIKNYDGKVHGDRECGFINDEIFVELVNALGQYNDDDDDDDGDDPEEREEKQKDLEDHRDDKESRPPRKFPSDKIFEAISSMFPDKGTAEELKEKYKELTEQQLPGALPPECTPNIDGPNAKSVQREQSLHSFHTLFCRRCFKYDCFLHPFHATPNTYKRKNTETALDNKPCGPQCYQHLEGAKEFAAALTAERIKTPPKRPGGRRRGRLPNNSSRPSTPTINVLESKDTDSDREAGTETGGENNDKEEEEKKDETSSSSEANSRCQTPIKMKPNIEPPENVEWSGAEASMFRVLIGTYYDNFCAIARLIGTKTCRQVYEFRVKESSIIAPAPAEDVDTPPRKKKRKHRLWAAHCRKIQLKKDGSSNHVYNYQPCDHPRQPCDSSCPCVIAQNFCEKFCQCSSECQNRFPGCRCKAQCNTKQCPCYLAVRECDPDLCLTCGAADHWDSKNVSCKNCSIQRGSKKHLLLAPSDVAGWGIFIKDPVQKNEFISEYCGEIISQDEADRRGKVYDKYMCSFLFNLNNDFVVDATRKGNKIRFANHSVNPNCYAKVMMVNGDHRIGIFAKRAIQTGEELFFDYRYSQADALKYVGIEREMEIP
T1 sequence (O75530 whole entry partner): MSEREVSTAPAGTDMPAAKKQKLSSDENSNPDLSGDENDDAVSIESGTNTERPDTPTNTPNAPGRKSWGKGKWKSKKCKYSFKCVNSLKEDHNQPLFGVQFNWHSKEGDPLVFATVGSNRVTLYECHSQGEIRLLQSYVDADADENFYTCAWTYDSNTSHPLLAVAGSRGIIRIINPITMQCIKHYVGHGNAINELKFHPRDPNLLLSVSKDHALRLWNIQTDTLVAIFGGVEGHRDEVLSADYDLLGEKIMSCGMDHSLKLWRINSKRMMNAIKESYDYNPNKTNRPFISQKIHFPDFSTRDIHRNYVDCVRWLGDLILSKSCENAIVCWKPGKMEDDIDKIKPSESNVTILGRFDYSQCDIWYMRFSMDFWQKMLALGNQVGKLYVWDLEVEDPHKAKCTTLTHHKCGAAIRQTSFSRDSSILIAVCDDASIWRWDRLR
T1 sequence (Q15022 whole entry partner): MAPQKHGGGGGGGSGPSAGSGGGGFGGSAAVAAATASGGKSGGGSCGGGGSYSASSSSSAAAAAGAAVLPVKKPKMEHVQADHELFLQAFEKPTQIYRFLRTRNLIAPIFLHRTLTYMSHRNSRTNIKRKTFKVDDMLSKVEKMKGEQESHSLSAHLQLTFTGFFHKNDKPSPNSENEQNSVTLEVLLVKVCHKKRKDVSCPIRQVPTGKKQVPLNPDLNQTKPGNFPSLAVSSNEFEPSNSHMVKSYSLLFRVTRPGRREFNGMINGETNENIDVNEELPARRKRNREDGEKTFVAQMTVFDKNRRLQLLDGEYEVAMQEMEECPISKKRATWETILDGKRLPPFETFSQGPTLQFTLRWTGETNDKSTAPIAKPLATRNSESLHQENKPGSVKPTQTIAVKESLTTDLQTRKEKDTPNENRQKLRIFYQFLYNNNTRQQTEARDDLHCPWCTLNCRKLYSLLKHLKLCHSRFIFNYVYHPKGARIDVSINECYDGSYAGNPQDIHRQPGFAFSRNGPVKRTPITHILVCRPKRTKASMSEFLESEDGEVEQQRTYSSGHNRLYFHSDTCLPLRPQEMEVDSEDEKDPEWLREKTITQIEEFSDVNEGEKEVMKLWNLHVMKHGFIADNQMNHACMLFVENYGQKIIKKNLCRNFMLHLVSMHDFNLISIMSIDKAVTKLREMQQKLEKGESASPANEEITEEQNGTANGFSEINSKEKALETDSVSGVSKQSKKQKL
T1 sequence (Q09028 whole entry partner): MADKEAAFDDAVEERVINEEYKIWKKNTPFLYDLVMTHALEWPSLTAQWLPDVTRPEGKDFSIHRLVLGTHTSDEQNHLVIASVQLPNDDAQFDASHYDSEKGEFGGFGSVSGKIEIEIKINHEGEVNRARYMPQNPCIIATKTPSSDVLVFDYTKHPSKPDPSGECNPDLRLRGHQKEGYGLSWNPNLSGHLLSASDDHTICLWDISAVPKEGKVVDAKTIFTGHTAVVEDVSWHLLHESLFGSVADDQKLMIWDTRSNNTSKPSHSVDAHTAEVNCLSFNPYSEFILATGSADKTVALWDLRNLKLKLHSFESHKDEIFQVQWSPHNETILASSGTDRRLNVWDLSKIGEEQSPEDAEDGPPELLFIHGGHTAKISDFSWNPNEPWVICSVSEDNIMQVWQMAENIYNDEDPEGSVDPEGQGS

Hs/AcPRC2_X = Hs/AcPRC2_X (Anolis carolinensis, UniProt G1KPH4, DEL368-454, form not given); details: rH3 substrate; n=2, mean±s.d.
Sequence of Hs/AcPRC2_X (G1KPH4 entry or part of it DEL368-454, form open): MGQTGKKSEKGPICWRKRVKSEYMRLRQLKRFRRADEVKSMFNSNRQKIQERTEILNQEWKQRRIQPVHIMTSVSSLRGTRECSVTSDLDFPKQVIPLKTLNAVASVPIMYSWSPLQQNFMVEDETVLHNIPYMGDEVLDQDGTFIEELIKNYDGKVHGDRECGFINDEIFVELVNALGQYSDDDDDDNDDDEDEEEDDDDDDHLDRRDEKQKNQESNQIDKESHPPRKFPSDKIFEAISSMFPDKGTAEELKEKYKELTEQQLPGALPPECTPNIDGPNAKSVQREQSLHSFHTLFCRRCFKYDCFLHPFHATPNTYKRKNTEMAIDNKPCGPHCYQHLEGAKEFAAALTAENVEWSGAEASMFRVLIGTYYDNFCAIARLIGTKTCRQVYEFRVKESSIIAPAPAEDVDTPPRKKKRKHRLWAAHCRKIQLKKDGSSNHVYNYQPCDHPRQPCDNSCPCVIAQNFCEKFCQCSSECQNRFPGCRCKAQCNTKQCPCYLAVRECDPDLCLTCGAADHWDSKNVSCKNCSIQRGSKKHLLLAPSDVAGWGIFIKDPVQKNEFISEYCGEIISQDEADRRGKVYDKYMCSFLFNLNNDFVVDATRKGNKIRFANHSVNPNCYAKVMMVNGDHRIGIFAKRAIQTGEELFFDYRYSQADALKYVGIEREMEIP
Sequence of Hs/AcPRC2_X (Q15022 545-726 S583D, form open, further chain): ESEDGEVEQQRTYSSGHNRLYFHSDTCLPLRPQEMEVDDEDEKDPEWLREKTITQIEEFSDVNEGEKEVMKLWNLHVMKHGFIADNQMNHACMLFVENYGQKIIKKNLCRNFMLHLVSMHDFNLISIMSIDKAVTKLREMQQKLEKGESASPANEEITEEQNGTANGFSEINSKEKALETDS
Sequence of Hs/AcPRC2_X (O75530 81-441, stated change not applied, form open, further chain): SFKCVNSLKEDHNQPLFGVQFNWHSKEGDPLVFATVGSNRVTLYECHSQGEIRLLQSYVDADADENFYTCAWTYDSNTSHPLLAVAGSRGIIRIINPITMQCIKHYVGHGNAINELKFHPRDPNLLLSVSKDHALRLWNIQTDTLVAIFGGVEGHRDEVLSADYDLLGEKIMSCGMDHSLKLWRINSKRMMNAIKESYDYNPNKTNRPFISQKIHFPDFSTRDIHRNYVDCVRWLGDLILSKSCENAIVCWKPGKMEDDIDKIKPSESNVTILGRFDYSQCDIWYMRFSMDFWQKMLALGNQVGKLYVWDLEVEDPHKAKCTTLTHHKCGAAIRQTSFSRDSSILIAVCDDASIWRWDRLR

HsPRC2_4 (Y641N/Y661D) = target: T2, HsPRC2_4 (Y641N/Y661D) (Homo sapiens, UniProt Q15910, Y641N/Y661D); experiment: Radioactive filter-binding histone methyltransferase assay, HsPRC2_4 (Y641N/Y661D), oligonucleosome substrate; format: biochemical
T2 construct: intact HsPRC2_4 (full-length EZH2 (EZH2_FL) and SUZ12 co-migrate on SDS-PAGE); made in house; host or cells: Sf9 insect cells (baculovirus co-infection)
T2 sequence (Q15910 whole entry Y641N/Y661D): as the sequence (Q15910 whole entry) above, with Y641N, Y661D counted along it
T2 sequence (O75530 whole entry partner): as the sequence (O75530 whole entry partner) above
T2 sequence (Q15022 whole entry partner): as the sequence (Q15022 whole entry partner) above
T2 sequence (Q09028 whole entry partner): as the sequence (Q09028 whole entry partner) above
Excerpt: (§1) (Prism, Graphpad Software Inc.).

HsPRC2_4 (Y111L) = target: T3, HsPRC2_4 (Y111L) (Homo sapiens, UniProt Q15910, Y111L); experiment: Radioactive filter-binding histone methyltransferase assay, HsPRC2_4 (Y111L), oligonucleosome substrate; format: biochemical
T3 construct: intact HsPRC2_4 (full-length EZH2 (EZH2_FL) and SUZ12 co-migrate on SDS-PAGE); made in house; host or cells: Sf9 insect cells (baculovirus co-infection)
T3 sequence (Q15910 whole entry Y111L): as the sequence (Q15910 whole entry) above, with Y111L counted along it
T3 sequence (O75530 whole entry partner): as the sequence (O75530 whole entry partner) above
T3 sequence (Q15022 whole entry partner): as the sequence (Q15022 whole entry partner) above
T3 sequence (Q09028 whole entry partner): as the sequence (Q09028 whole entry partner) above
Excerpt: as §1

HsPRC2_4 [2] = target: T1, HsPRC2_4; experiment: Radioactive filter-binding histone methyltransferase assay, intact HsPRC2_4, oligonucleosome substrate; format: biochemical
Excerpt: as §1

HsPRC2_4 (Y641N) = target: T4, HsPRC2_4 (Y641N) (Homo sapiens, UniProt Q15910, Y641N); experiment: Radioactive filter-binding histone methyltransferase assay, HsPRC2_4 (Y641N), oligonucleosome substrate; format: biochemical
T4 construct: intact HsPRC2_4 (full-length EZH2 (EZH2_FL) and SUZ12 co-migrate on SDS-PAGE); made in house; host or cells: Sf9 insect cells (baculovirus co-infection)
T4 sequence (Q15910 whole entry Y641N): as the sequence (Q15910 whole entry) above, with Y641N counted along it
T4 sequence (O75530 whole entry partner): as the sequence (O75530 whole entry partner) above
T4 sequence (Q15022 whole entry partner): as the sequence (Q15022 whole entry partner) above
T4 sequence (Q09028 whole entry partner): as the sequence (Q09028 whole entry partner) above
Excerpt: as §1

[3] = oligonucleosome substrate, n=2, mean±s.d.

Compound: CC[C@H](C)n1cc(C)c2c(C(=O)NCc3c(C)cc(C)[nH]c3=O)cc(-c3ccc(N4CCNCC4)nc3)cc21 [GSK126]
- Ki on activation of PRC2 by H3K27Me3 mark (PRC2): lower
- Residence time on activation of PRC2 by H3K27Me3 mark (PRC2): increased

- Km (HsPRC2_4 [1]; intact HsPRC2_4 complex, read-out: Km, SAM): 1.5 µM
Compound: C[S+](CC[C@H](N)C(=O)[O-])C[C@H]1O[C@@H](n2cnc3c(N)ncnc32)[C@H](O)[C@@H]1O (stereo partly drawn) [SAM, S-adenosyl-L-methionine, reference compound]

Compound: CCc1cc(C)[nH]c(=O)c1CN1CCc2c(Cl)cc(OC3CCN(C(=O)C(C)O)CC3)c(Cl)c2C1=O (stereo not drawn) [inhibitor 1]
- Ki (Hs/AcPRC2_X): 3.1 ± 0.11 nM
- Biochemical inhibition (HsPRC2_4 (Y641N/Y661D); Y641N/Y661D HsPRC2_4): refractory
- Ki (HsPRC2_4 (Y641N/Y661D); [3]): 204 ± 16 nM
- Biochemical inhibition (HsPRC2_4 (Y111L); Y111L HsPRC2_4): refractory
- Ki (HsPRC2_4 (Y111L); [3]): 116.4 ± 0.7 nM
- Mode of inhibition (IC50 as a function of (SAM)/Km) (HsPRC2_4 [2]; HsPRC2_4, linear relationship of IC50 with (SAM)/Km, two independent experiments): SAM-competitive
- Ki (HsPRC2_4 [2]; [3]): 1.63 ± 0.13 nM
- Sensitivity to inhibitor (HsPRC2_4 (Y641N); Y641N HsPRC2_4): sensitive
- Ki (HsPRC2_4 (Y641N); [3]): 4.56 ± 0.16 nM
- Inhibition profile, basal versus stimulated state (HsPRC2_4 [1]; basal and stimulated states of HsPRC2_4): almost identical
- Ki (HsPRC2_4 [1]; in the presence of the activator peptide H3K27Me3 (21-44)): 0.65 nM
- Ki (HsPRC2_4 [1]; no activator): 0.89 nM
